Source: patent US12692253B2, “Antimicrobial compounds and methods” (Curza Global, LLC, priority 2019, dated 2026)

What was measured:
A. baumannn (Ab) = assay: Broth microdilution minimum inhibitory concentration (MIC), CLSI; format: cell-based; settings: A. baumannn; growth medium with sodium bicarbonate; read-out: Ab + bicarb MIC
Procedure, shortened: (§1)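 CLSI broth microdilution with modification: 8-point two-fold compound dilutions in CAMHB, CAMHB plus 6.25 or 25 mM sodium bicarbonate, or CAMHB plus 0–50% heat-inactivated human serum. Inoculum 5×10^4 CFU/well from log-phase cultures adjusted to 0.5 McFarland; triplicate wells.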

E. coli (Ec) = assay: as above; format: cell-based; settings: Escherichia coli, growth medium with sodium bicarbonate, read-out: E. coli + bicarb MIC
Procedure, shortened: as §1

P. aeruginosa (Pa) = assay: as above; format: cell-based; settings: Pseudomonas aeruginosa, growth medium with sodium bicarbonate, read-out: Pa MIC + bicarb
Procedure, shortened: as §1

S. aureus (Sa) = assay: as above; format: cell-based; settings: Staphylococcus aureus, growth medium with sodium bicarbonate, read-out: Sa + bicarb MIC
Procedure, shortened: as §1

E. faecalis (Ef) = assay: as above; format: cell-based; settings: Enterococcus faecalis, growth medium with sodium bicarbonate, read-out: Ef + bicarb MIC
Procedure, shortened: as §1

[1] = tested on: E. coli S30 extract (bacterial protein synthesis); assay: E. coli S30 extract coupled transcription-translation luciferase assay (inhibition of bacterial protein synthesis); format: biochemical; settings: % inhibition @ 1 μM, read-out: S30 IC50 (μM/% inhib.)
Procedure, shortened: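 Coupled transcription-translation in E. coli S30 circular-DNA extract expressing luciferase from pBESTluc, with 8-point 2-fold compound dilutions; 1 hour at 37 °C, stopped at 4 °C. Luminescence read; % inhibition versus no-inhibitor wells, no-DNA wells as background.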

[2] = biological target: Rabbit Reticulocyte Lysate (eukaryotic protein synthesis); assay: Rabbit reticulocyte lysate luciferase assay (inhibition of eukaryotic protein synthesis); format: biochemical; settings: % inhibition @ 1 μM, read-out: Rabbit reticulocyte IC50 (μM/% inhib.)
Procedure, shortened: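 In vitro translation of luciferase control RNA in nuclease-treated rabbit reticulocyte lysate with amino acid mixture, compounds in 2-fold serial dilution, 90 minutes at 30° C. Luminescence read after luciferase reagent; % inhibition relative to water no-inhibitor controls, with no-RNA background wells.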

Row | SMILES | MIC (A. baumannn (Ab)) [µg/mL] | MIC (E. coli (Ec)) [µg/mL] | MIC (P. aeruginosa (Pa)) [µg/mL] | MIC (S. aureus (Sa)) [µg/mL] | MIC (E. faecalis (Ef)) [µg/mL] | IC50 [1] [µM] | IC50 [2] [µM]
1 | NC[C@@H]1CCN(C(=O)Nc2ccn(-c3ccc(CN4C[C@@H]5[C@@H](N)[C@@H]5C4)cc3)c(=O)n2)C1 [Compound 251] | > 32 | > 32 | > 32 | > 32 | > 32 | ≥ 1 | ≥ 1
2 | NCC1CC2(CCN(C(=O)Nc3ccn(-c4ccc(CN5C[C@@H]6[C@@H](N)[C@@H]6C5)cc4)c(=O)n3)CC2)C1 [Compound 252] | > 32 | < 8 | > 32 | < 8 | > 32 | 0.5 to 1 | ≥ 1
3 | NC[C@H]1CCN(C(=O)Nc2ccn(-c3ccc(CN4C[C@@H]5[C@@H](N)[C@@H]5C4)cc3)c(=O)n2)C1 [Compound 253] | > 32 | > 32 | > 32 | > 32 | > 32 | ≥ 1 | ≥ 1
4 | NCC1CN(C(=O)Nc2ccn(-c3ccc(CN4C[C@@H]5[C@@H](N)[C@@H]5C4)cc3)c(=O)n2)C1 [Compound 254] | > 32 | 8 to 32 | > 32 | > 32 | > 32 | 0.5 to 1 | ≥ 1
5 | NCCC1CN(C(=O)Nc2ccn(-c3ccc(CN4C[C@@H]5[C@@H](N)[C@@H]5C4)cc3)c(=O)n2)C1 [Compound 255] | > 32 | 8 to 32 | > 32 | > 32 | > 32 | 0.5 to 1 | ≥ 1
